Drawing on ChEMBL document CHEMBL4014333, “Discovery of Small Molecules for Repressing Cap-Independent Translation of Human Vascular Endothelial Growth Factor (hVEGF) as Novel Antitumor Agents” (J Med Chem, 2017), this text covers Activity for 65 compounds.

Active and inactive are the calls of the source. The rule behind the calls is not given here. Numbered stars: 1 amine (or outer) side, 2 acyl side, 3 side chain; on linkers, the order of the positions; unused ones are H or OH. Square brackets hold non-standard residues; d marks the D form. Peptide text beside a SMILES is read from it. X1 = CN1CCC(COc2ccc3oc4c(N(CC(=O)[*:2])[*:1])c5ccccc5nc4c3c2)CC1

The species named for experiment [1] is Homo sapiens. As to the kind of experiment: Binding affinity to biotin-labeled human wild type internal ribosome entry site A RNA G-quadruplex by SPR analysis.
Experiment [2] in a line: Binding affinity to biotin-labeled DNA hairpin (unknown origin) by SPR analysis.
Experiment [3] is filed under the species Homo sapiens. As to the kind of experiment: Binding affinity to biotin-labeled human 5'-UGAUGAGUGUGAGGAGGA-3' RNA G-quadruplex by SPR analysis.

Regarding `C[n+]1c2ccccc2c(NCC(=O)NCC(=O)NC(CCCNC(=N)N)C(=O)O)c2oc3ccccc3c21` (centres undefined), the outcome (in the experiment listed under Homo sapiens [1]; in experiment [2]; in the experiment listed under Homo sapiens [3]) was Active. `COc1ccc2cc3[n+](cc2c1NCCN1CCCCC1)CCc1cc2c(cc1-3)OCO2`: in the experiment listed under Homo sapiens [1], the outcome was Active. Regarding `COc1ccc2cc3[n+](cc2c1OCCC[n+]1ccccc1)CCc1cc2c(cc1-3)OCO2`, the result in the experiment listed under Homo sapiens [1] was Active. For the compound `CCN(CC)CCNc1c2ccccc2[n+](C)c2c1oc1ccc(OCC3CC[N+](C)(C)CC3)cc12`, the outcome (in the experiment filed under Homo sapiens [1]; in experiment [2]; in the experiment filed under Homo sapiens [3]) was Active.

With `CN(C)CCCNc1c2ccccc2[n+](C)c2c1oc1ccc(OCCC[N+](C)(C)C)cc12`, the result (in the experiment listed under Homo sapiens [1]; in experiment [2]; in the experiment listed under Homo sapiens [3]) was Active. For the compound `CN1CCC(COc2ccc3oc4c(NCC(=O)NCC(=O)NC(CCCNC(=N)N)C(=O)NC(CO)C(=O)O)c5ccccc5nc4c3c2)CC1` (centres undefined), the outcome (in the experiment listed under Homo sapiens [1]; in experiment [2]; in the experiment listed under Homo sapiens [3]) was Active. As for `CN(C)CCCNc1c2ccccc2[n+](C)c2c1[nH]c1ccccc12`, the outcome in the experiment filed under Homo sapiens [1] was Active. On the same count and under the same terms, the entry for `COc1ccc2cc3[n+](cc2c1OCCCCCC[n+]1ccccc1)CCc1cc2c(cc1-3)OCO2` is “Active”. Regarding `CCN(CC)CCNc1c2ccccc2[n+](C)c2c1oc1ccc(OCC[N+](C)(C)C)cc12`, the outcome (in the experiment filed under Homo sapiens [1]; in experiment [2]; in the experiment filed under Homo sapiens [3]) was Active. As for `CN1CCC(COc2ccc3oc4c(NCC(=O)NCC(=O)NC(CCCNC(=N)N)C(=O)NC(Cc5ccc(O)cc5)C(=O)O)c5ccccc5nc4c3c2)CC1` (centres undefined), in the experiment listed under Homo sapiens [1], the result was Active. For the compound `COc1ccc2cc3[n+](cc2c1OCCC[n+]1ccc(N(C)C)cc1)CCc1cc2c(cc1-3)OCO2`, the outcome in the experiment filed under Homo sapiens [1] was Active. Regarding `C[n+]1c2ccccc2c(NCCCN2CCOCC2)c2oc3ccc(OCC(=O)NCCN4CCOCC4)cc3c21`, in the experiment listed under Homo sapiens [1], the outcome was Active. Take `COc1ccc2cc3[n+](cc2c1NCCCN1CCCCC1)CCc1cc2c(cc1-3)OCO2`: the outcome (in the experiment listed under Homo sapiens [1]; in experiment [2]; in the experiment listed under Homo sapiens [3]) was Active. With `CN1CCC(COc2ccc3oc4c(NCC(=O)NCC(=O)NC(CCCNC(=N)N)C(=O)NC(CCCNC(=N)N)C(=O)NCC(=O)O)c5ccccc5nc4c3c2)CC1` (centres undefined) (H-[X1]GRRG-OH; configuration not given here), the result (in the experiment filed under Homo sapiens [1]; in experiment [2]; in the experiment filed under Homo sapiens [3]) was Active. Consider `CCN(CC)CCNc1c2ccccc2[n+](C)c2c1[nH]c1ccccc12`, for which the result (in the experiment listed under Homo sapiens [1]; in experiment [2]; in the experiment listed under Homo sapiens [3]) was Active.

As for `CN(C)CCCNC(=O)COc1ccc2oc3c(NCCCN(C)C)c4ccccc4[n+](C)c3c2c1`, the result (in the experiment filed under Homo sapiens [1]; in experiment [2]; in the experiment filed under Homo sapiens [3]) was Active. For the compound `C[n+]1c2ccccc2c(NCCN2CCOCC2)c2oc3ccc(OCC[N+]4(C)CCOCC4)cc3c21`, the result (in the experiment listed under Homo sapiens [1]; in experiment [2]; in the experiment listed under Homo sapiens [3]) was Active. With `CN(C)CCNc1c2ccccc2[n+](C)c2c1[nH]c1cc(F)c(F)cc12`, the outcome in the experiment listed under Homo sapiens [1] was Active.

Consider `CN1CCC(COc2ccc3oc4c(NCC(=O)NCC(=O)NCC(=O)O)c5ccccc5nc4c3c2)CC1`, for which the result in the experiment filed under Homo sapiens [1] was Active.

As for `CN(C)CCCNc1c2ccccc2[n+](C)c2c1oc1ccc(OCC[N+]3(C)CCCCC3)cc12`, the outcome (in the experiment filed under Homo sapiens [1]; in experiment [2]; in the experiment filed under Homo sapiens [3]) was Active. As for `C[n+]1c2ccccc2c(NCC(=O)NCC(=O)NCC(=O)O)c2oc3ccccc3c21`, the outcome (in the experiment listed under Homo sapiens [1]; in experiment [2]; in the experiment listed under Homo sapiens [3]) was Active. In the case of `CN(C)CCCNc1c2ccccc2nc2c1oc1ccc(OCC3CCN(C)CC3)cc12`, in the experiment listed under Homo sapiens [1], the result was Active. Still for that read-out and setting: the value for `COc1ccc2cc3[n+](cc2c1OCCC[n+]1cccc(F)c1)CCc1cc2c(cc1-3)OCO2` was “Active”. Same read-out and setting: the value for `CN1CCC(COc2ccc3oc4c(NCC(=O)NCC(=O)NC(CCCNC(=N)N)C(=O)NC(Cc5c[nH]c6ccccc56)C(=O)O)c5ccccc5nc4c3c2)CC1` (centres undefined) was “Active”.

For the compound `C[n+]1c2ccccc2c(NCC(=O)NC(Cc2ccccc2)C(=O)NC(CCCNC(=N)N)C(=O)O)c2oc3ccccc3c21` (centres undefined), the outcome in the experiment listed under Homo sapiens [1] was Active. On to `CN(C)CCCCOc1cccc2c1oc1c(NCCCN(C)C)c3ccccc3nc12`, for which the outcome in the experiment filed under Homo sapiens [1] was Active.

For the compound `COc1ccc2cc3[n+](cc2c1OCCCOc1ccncc1)CCc1cc2c(cc1-3)OCO2`, the result in the experiment filed under Homo sapiens [1] was Active. Turning to `COc1ccc2cc3[n+](cc2c1OCCCn1ccc(N)nc1=O)CCc1cc2c(cc1-3)OCO2`, the result in the experiment listed under Homo sapiens [1] was Active. Regarding `CC(NC(=O)C(CCCNC(=N)N)NC(=O)CNC(=O)CNc1c2ccccc2nc2c1oc1ccc(OCC3CCN(C)CC3)cc12)C(=O)O` (centres undefined), the result in the experiment filed under Homo sapiens [1] was Active.

As to `O=C1/C(=C\c2ccc(N3CCOCC3)cc2)CC/C1=C\c1cccnc1`, the outcome in the experiment listed under Homo sapiens [1] was Active.

Consider `CN1CCC(COc2ccc3oc4c(NCC(=O)NCC(=O)NC(CCCNC(=N)N)C(=O)NC(CCC(=O)O)C(=O)O)c5ccccc5nc4c3c2)CC1` (centres undefined), for which the outcome in the experiment filed under Homo sapiens [1] was Active. As for `CN1CCC(COc2ccc3oc4c(NCC(=O)NCC(=O)NC(CCCNC(=N)N)C(=O)NC(Cc5ccccc5)C(=O)O)c5ccccc5nc4c3c2)CC1` (centres undefined), in the experiment filed under Homo sapiens [1], the outcome was Active. Regarding `COc1ccc2cc3[n+](cc2c1OCCN)CCc1cc2c(cc1-3)OCO2`, the outcome in the experiment filed under Homo sapiens [1] was Active. Same read-out and setting: the entry for `CN1CCC(COc2ccc3oc4c(NCC(=O)NCC(=O)NC(CCCCN)C(=O)O)c5ccccc5nc4c3c2)CC1` (centres undefined) is “Active”. Still for that read-out and setting: the value for `CN(C)CCNc1c2ccccc2nc2c1oc1ccc(OCCN(C)C)cc12` was “Active”. For the compound `CN1CCC(COc2ccc3oc4c(NCC(=O)NCC(=O)NC(CCCNC(=N)N)C(=O)NC(Cc5c[nH]cn5)C(=O)O)c5ccccc5nc4c3c2)CC1` (centres undefined), the result in the experiment listed under Homo sapiens [1] was Active. On the same count and under the same terms, the value for `COc1ccc2cc3[n+](cc2c1NCCCCCCN)CCc1cc2c(cc1-3)OCO2` was “Active”; that for `CN(C)CCCNc1c2ccccc2nc2c1oc1cc(OCCN(C)C)ccc12` was “Active”. With `CCN(CC)CCOc1ccc(Nc2nc(-c3ccccc3NC(=O)CCCl)nc3ccccc23)cc1`, the outcome in the experiment listed under Homo sapiens [1] was Active. Still for that read-out and setting: the value for `COc1ccc2cc3[n+](cc2c1NCCO)CCc1cc2c(cc1-3)OCO2` was “Active”. Same read-out and setting: the value for `CN(C)CCCNc1c2ccccc2nc2c1oc1c(OCCN(C)C)cccc12` was “Active”; that for `CN(C)CCNC(=O)COc1ccc2oc3c(NCCN(C)C)c4ccccc4[n+](C)c3c2c1` was “Active”; that for `C[n+]1c2ccccc2c(NCCCN2CCCCC2)c2oc3ccc(OCC(=O)NCCCN4CCCCC4)cc3c21` was “Active”.

Consider `CN(C)CCCNc1c2ccccc2nc2c1oc1ccc(OCCN(C)C)cc12`, for which, in the experiment filed under Homo sapiens [1], the outcome was Active. On the same count and under the same terms, the value for `CN1CCC(COc2ccc3oc4c(NCC(=O)NC(Cc5c[nH]cn5)C(=O)NC(CCCNC(=N)N)C(=O)O)c5ccccc5nc4c3c2)CC1` (centres undefined) was “Active”. The same measure, in the same setting: the entry for `CN1CCC(COc2ccc3oc4c(NCC(=O)NCC(=O)NC(CCCNC(=N)N)C(=O)NC(Cc5c[nH]cn5)C(=O)NCC(=O)O)c5ccccc5nc4c3c2)CC1` (centres undefined) (H-[X1]GRHG-OH; configuration not given here) is “Active”; for `COc1ccc2cc3[n+](cc2c1OCCCn1cc[n+](C)c1)CCc1cc2c(cc1-3)OCO2` it is “Active”. Still for that read-out and setting: the entry for `CN1CCC(COc2ccc3oc4c(NCC(=O)NC(CCCCN)C(=O)NC(CCCNC(=N)N)C(=O)O)c5ccccc5nc4c3c2)CC1` (centres undefined) is “Active”. Consider `COc1ccc2cc3[n+](cc2c1OCCC[n+]1cccc(C)c1)CCc1cc2c(cc1-3)OCO2`, for which the result in the experiment listed under Homo sapiens [1] was Active. The same measure, in the same setting: the entry for `COc1ccc2cc3[n+](cc2c1OCCCCC[n+]1ccccc1)CCc1cc2c(cc1-3)OCO2` is “Active”; for `C[n+]1c2ccccc2c(NCCO)c2[nH]c3ccccc3c21` it is “Active”; for `CN1CCC(COc2ccc3oc4c(NCC(=O)NCC(=O)NC(Cc5c[nH]cn5)C(=O)O)c5ccccc5nc4c3c2)CC1` (centres undefined) it is “Active”. The same measure, in the same setting: the value for `CN1CCC(COc2ccc3oc4c(NCC(=O)NCC(=O)NC(CCCNC(=N)N)C(=O)O)c5ccccc5nc4c3c2)CC1` (centres undefined) was “Active”. With `CCN(CC)CCOc1ccc(Nc2nc(-c3ccccc3N)nc3ccccc23)cc1`, the outcome in the experiment filed under Homo sapiens [1] was Active. As to `C[n+]1c2ccccc2c(NCCCN2CCOCC2)c2oc3ccc(OCC[N+]4(C)CCCCC4)cc3c21`, in the experiment filed under Homo sapiens [1], the outcome was Active. Still for that read-out and setting: the value for `CN1CCC(COc2ccc3oc4c(NCC(=O)NCC(=O)NC(CCCNC(=N)N)C(=O)NC(CCC(N)=O)C(=O)O)c5ccccc5nc4c3c2)CC1` (centres undefined) was “Active”; that for `C[n+]1c2ccccc2c(NCC(=O)NC(CCCNC(=N)N)C(=O)O)c2oc3ccccc3c21` (centres undefined) was “Active”; that for `COc1ccc2cc3[n+](cc2c1NCCN1CCOCC1)CCc1cc2c(cc1-3)OCO2` was “Active”. The same measure, in the same setting: the entry for `CN(C)CCCNc1c2ccccc2nc2c1oc1ccc(OCCCN(C)C)cc12` is “Active”; for `COc1ccc2cc3[n+](cc2c1OCCCN)CCc1cc2c(cc1-3)OCO2` it is “Active”; for `C[n+]1c2ccccc2c(NCC(=O)NCC(=O)NC(Cc2c[nH]cn2)C(=O)O)c2oc3ccccc3c21` (centres undefined) it is “Active”. Still for that read-out and setting: the value for `C[n+]1c2ccccc2c(NCCN2CCOCC2)c2oc3ccc(OCC(=O)NCCN4CCOCC4)cc3c21` was “Active”. As to `C[n+]1c2ccccc2c(NCC(=O)NCC(=O)NC(CCCCN)C(=O)O)c2oc3ccccc3c21` (centres undefined), the outcome in the experiment listed under Homo sapiens [1] was Active. On the same count and under the same terms, the entry for `C[n+]1c2ccccc2c(NCC(=O)NC(CCCCN)C(=O)NC(CCCNC(=N)N)C(=O)O)c2oc3ccccc3c21` (centres undefined) is “Active”; for `COc1ccc2cc3[n+](cc2c1NCCN(C)C)CCc1cc2c(cc1-3)OCO2` it is “Active”.
